From patent publication US10428030B2, “Heterocycle derivatives and their use for the treatment of CNS disorders” (Trillium Therapeutics Inc., priority 2015, dated 2019)

Experiments:
[1] = tested on: Male, Sprague-Dawley rats; assay: Spinal Nerve Injury (SNI) model (neuropathic pain); type: in vivo, rat; conditions: 60 mg/kg i.p.
Description: The SNI model of neuropathic pain was developed in rats using the procedure described by Decostered and Woolf, Pain 2000, 87: 149-158. Under isoflurane anesthesia, the skin on the lateral surface of the thigh was incised and a section was made directly through the biceps femoris muscle exposing the sciatic nerve and its three terminal branches: the sural, common peroneal and tibial nerves. The common peroneal and the tibial nerves were tight-ligated with 6-0 suture and sectioned distal to the ligation, removing 2-4 mm of the distal nerve stump. Extreme care was taken to avoid any contact with or stretching of the intact sural nerve. Following surgery, hemostasis was confirmed and the muscles were sutured in layers using 4-0 suture and the skin was closed with 4-0 suture and metal clips.
Male, Sprague-Dawley rats were used. Testing of compounds was done 21 days post-operatively. After initial basal readings were taken, the test compound or vehicle was administered. The readings were taken again 30, 60 and 180 min after the compound/vehicle administration. Both the control (uninjured) and the SNI paw were tested. The presence of mechanical allodynia was assessed using the Dynamic Plantar Aesthesiometer (Ugo Basile, Italy) which is a modified version of the Von Frey Hair test. […] A single reading was taken per timepoint. […]
Cold allodynia was assessed by using the acetone test. […]

male CF-1 mouse = assay: Mouse formalin test (pain); type: in vivo; conditions: 41 mg/kg i.p.; most pronounced in second (late) phase
Protocol: The formalin test is performed according to the method of Tjolsen et al. Pain, 1992. 51(1). An injection of 0.5% formalin (Sigma) is made into the planter region of the right hind paw of an adult (26-30 g) male CF-1 mouse. Sub-dermal formalin injection elicits a distinct behavioral profile characterized by the mouse licking the affected paw. The behavior is characteristically biphasic in nature. For example, immediately following the injection the mouse licks the paw intensely for approximately 10 min. This is referred to as phase 1 (or, the acute phase) and is followed by a brief latent period (<5 minutes) where there is little behavioral activity. A more prolonged period of about 20-30 min of activity then ensues, which constitutes phase 2 (or, the inflammatory phase). […] The cumulative length of licking for each 2-min time period is measured. […] The area under the curve (AUG) is calculated for both the acute and inflammatory phases of the licking response for individual animals in both the test and control groups. The percent of control AUG for drug-treated animal groups is determined using the Graph-Pad Prism Version 3.03. The total AUG for each phase of the test group is also calculated and converted to percentage of total AUG of control for each phase. The average and S.E.M. for both the drug treated and control percentages are calculated and tested for significant difference.

MTLE mice = assay: Model of mesial temporal lobe epilepsy (mTLE), hippocampal paroxysmal discharges; type: in vivo, mouse; conditions: for Effect (% baseline): HPD; for Effect (% baseline) / Mean HPD Counts: mice 4 weeks after intra-hippocampal KA
Description: The MTLE mouse model recapitulates many of the characteristics observed in human patients with temporal lobe epilepsy (TLE). The MTLE mouse is characterized by an initial neurotoxic event, a unilateral intrahippocampal injection of kainic acid (KA) into the dorsal hippocampus, which induces non-convulsive SE lasting several hours. This initial event is followed by a latent phase. Two to three weeks after KA injection, spontaneous recurrent hippocampal paroxysmal discharges (HPD) are only recorded in the epileptic hippocampus and remain stable and stereotyped for the whole life of the animal. These HPDs occur spontaneously about 30-60 times per hour when the animals are in a state of quiet wakefulness, generally last 15-20 sec and are associated with behavioral arrest and/or mild motor automatisms. Adult, male […] mice are stereotaxically injected with kainate (1 nmol in 100 nL) and implanted with 1 bipolar electrode in the dorsal hippocampus, and then allowed to recover for four weeks prior to evaluation in the screening protocol. Using a group size of 4 MTLE mice per dose of investigational compound, the compounds are typically first tested using the 6 Hz 44 mA ED50 value. […] For all acute studies, drug conditions are counter-balanced in MTLE mice over a two week period using a Latin square dosing protocol. Animals are used as their own controls. Digital EEG recordings are performed on freely moving animals for 20 minutes pre-injection (reference period) and 90 minutes post-injection. Data are analyzed for the period of 10 minutes before and 10 minutes after peak time of effect of the investigational compound, as determined from the 6 Hz 44 mA seizure test. The effects of the injected compound are compared to the reference period. Any accompanying effect on animal behavior is noted. Data are presented as the raw number of HPDs during the analyzed 20 min period (10 minutes before and 10 minutes after peak time of effect of compound) for each MTLE mouse, group mean number of HPDs, and effect on suppression as represented by percent of baseline HPD values.

Rotorod (ip), mouse = conditions: in vivo, mice

With `O=C1COc2cc(OCc3ccc(OC(F)F)cc3)ccc2N1` [Compound I(B)] the “mechanical allodynia in the denervated paw (Von Frey test)” value [1] was “effective at reducing the mechanical allodynia”, the cold allodynia ([1]; neuropathic rats) was “significantly reduced” and the “number of paw licks” value (male CF-1 mouse) was “significant decrease in the number of paw licks”. For the same compound, the “Effect (% baseline)” value (MTLE mice; after 80 mg/kg) was 42.0 % baseline, the “Mean HPD Counts” value (MTLE mice; after 80 mg/kg) was 7.25 and the “Effect (% baseline)” value (MTLE mice; after 160 mg/kg) was 17.9 % baseline. The “Mean HPD Counts” value (MTLE mice; after 160 mg/kg) was 4.25, the “effect against spontaneous recurrent hippocampal paroxysmal discharges (HPD)” value (MTLE mice; dose of 125 mg/kg) was “effective” and the ED50 at 0.5 hours (Rotorod (ip), mouse) was over 500 mg/kg.
